# PubChem BioAssay AID328 (DTP/NCI, 2004)
# Several values for one entry are separate records, joined by “and”; a condition that tells them apart may be missing. Identical values can stand only once. Inconclusive results and toxic doses are left out.
# Tested on: BDF1 mice, P388 leukemia ip, median survival T/C
# Assay: NCI In Vivo Anticancer Drug Screen. Data for tumor model P388 Leukemia (intraperitoneal) in B6D2F1 (BDF1) mice
# Details: endpoint: median survival time, higher = longer survival
# Outline: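 Mice carrying the transplantable tumour receive compound or vehicle. Survival is followed in each arm, and the treated measure is divided by the vehicle measure.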
smiles,measurement,setting,value
COc1cccc2c1C(=O)c1c(O)c3c(c(O)c1C2=O)C[C@@](O)(C(=O)CO)C[C@@H]3OC1CC(N)C(O)C(C)O1 (some centres undefined),T/C,"dose: 0.25 mg/kg/injection, schedule: Q03HX024 (ip), vehicle: saline",230 % of control
same,T/C,"dose: 0.37 mg/kg/injection, schedule: Q03HX024 (ip), vehicle: saline",285 % of control
same,T/C,"dose: 0.39 mg/kg/injection, schedule: Q01DX009 (ip), vehicle: water",152 % of control
same,T/C,"dose: 0.5 mg/kg/injection, schedule: Q01DX009 (ip), vehicle: saline",250 % of control
same,T/C,"dose: 0.5 mg/kg/injection, schedule: Q03HX024 (ip), vehicle: saline",250 % of control
same,T/C,"dose: 0.75 mg/kg/injection, schedule: Q03HX024 (ip), vehicle: saline",240 % of control
same,T/C,"dose: 0.8 mg/kg/injection, schedule: Q01DX004 (ip), vehicle: saline",270 % of control
same,T/C,"dose: 0.9 mg/kg/injection, schedule: Q01DX009 (ip), vehicle: clinical formulation",263 % of control
same,T/C,"dose: 1.0 mg/kg/injection, schedule: Q01DX001 (ip), vehicle: saline",153 % of control
same,T/C,"dose: 1.0 mg/kg/injection, schedule: Q01DX004 (ip), vehicle: saline",536 % of control
same,T/C,"dose: 1.0 mg/kg/injection, schedule: Q01DX009 (ip), vehicle: saline",285 % of control
same,T/C,"dose: 1.0 mg/kg/injection, schedule: Q03HX008 (ip), vehicle: water",250 % of control
same,T/C,"dose: 1.0 mg/kg/injection, schedule: Q03HX016 (ip), vehicle: saline",290 % of control
same,T/C,"dose: 1.0 mg/kg/injection, schedule: Q04DX003 (ip), vehicle: saline",106 % of control
same,T/C,"dose: 1.0 mg/kg/injection, schedule: Q04DX009 (ip), vehicle: water",117 % of control
same,T/C,"dose: 1.2 mg/kg/injection, schedule: Q01DX009 (ip), vehicle: saline",304 % of control
same,T/C,"dose: 1.2 mg/kg/injection, schedule: Q03HX008 (ip), vehicle: saline",539 % of control
same,T/C,"dose: 1.3 mg/kg/injection, schedule: Q01DX009 (ip), vehicle: clinical formulation",473 % of control
same,T/C,"dose: 1.5 mg/kg/injection, schedule: Q01DX009 (ip), vehicle: saline",361 % of control
same,T/C,"dose: 1.5 mg/kg/injection, schedule: Q03HX024 (sc), vehicle: saline",95 % of control
same,T/C,"dose: 1.56 mg/kg/injection, schedule: Q01DX009 (ip), vehicle: water",224 % of control
same,T/C,"dose: 1.6 mg/kg/injection, schedule: Q01DX004 (ip), vehicle: saline",423 % of control
same,T/C,"dose: 1.73 mg/kg/injection, schedule: Q04DX003 (ip), vehicle: water",256 % of control
same,T/C,"dose: 1.8 mg/kg/injection, schedule: Q01DX009 (ip), vehicle: saline",295 % of control and 306 % of control
same,T/C,"dose: 1.8 mg/kg/injection, schedule: Q03HX008 (ip), vehicle: saline",539 % of control
same,T/C,"dose: 1.8 mg/kg/injection, schedule: Q04DX003 (ip), vehicle: saline",122 % of control
same,T/C,"dose: 1.8 mg/kg/injection, schedule: Q## X003 (ip), vehicle: saline",122 % of control
same,T/C,"dose: 2.0 mg/kg/injection, schedule: Q01DX009 (ip), vehicle: clinical formulation",247 % of control
same,T/C,"dose: 2.0 mg/kg/injection, schedule: Q01DX009 (ip), vehicle: saline",238 % of control and 250 % of control
same,T/C,"dose: 2.0 mg/kg/injection, schedule: Q03HX008 (ip), vehicle: water",254 % of control
same,T/C,"dose: 2.0 mg/kg/injection, schedule: Q04DX003 (ip), vehicle: saline",122 % of control
same,T/C,"dose: 2.0 mg/kg/injection, schedule: Q06HX004 (ip), vehicle: water",300 % of control
same,T/C,"dose: 2.16 mg/kg/injection, schedule: Q04DX003 (ip), vehicle: water",247 % of control
same,T/C,"dose: 2.5 mg/kg/injection, schedule: Q01DX009 (ip), vehicle: saline",119 % of control
same,T/C,"dose: 2.5 mg/kg/injection, schedule: Q01DX009 (sc), vehicle: saline",115 % of control
same,T/C,"dose: 2.5 mg/kg/injection, schedule: Q04DX003 (ip), vehicle: water",237 % of control
same,T/C,"dose: 2.7 mg/kg/injection, schedule: Q01DX009 (ip), vehicle: saline",124 % of control
same,T/C,"dose: 2.7 mg/kg/injection, schedule: Q03HX008 (ip), vehicle: saline",92 % of control
same,T/C,"dose: 2.7 mg/kg/injection, schedule: Q04DX003 (ip), vehicle: saline",122 % of control
same,T/C,"dose: 2.7 mg/kg/injection, schedule: Q## X003 (ip), vehicle: saline",122 % of control
same,T/C,"dose: 2.88 mg/kg/injection, schedule: Q04DX003 (ip), vehicle: water",241 % of control
same,T/C,"dose: 3.0 mg/kg/injection, schedule: Q01DX009 (ip), vehicle: clinical formulation",473 % of control
same,T/C,"dose: 3.0 mg/kg/injection, schedule: Q01DX009 (ip), vehicle: saline",104 % of control
same,T/C,"dose: 3.0 mg/kg/injection, schedule: Q01DX009 (sc), vehicle: saline",100 % of control
same,T/C,"dose: 3.0 mg/kg/injection, schedule: Q03HX008 (ip), vehicle: water",243 % of control
same,T/C,"dose: 3.0 mg/kg/injection, schedule: Q04DX004 (ip), vehicle: saline",112 % of control
same,T/C,"dose: 3.5 mg/kg/injection, schedule: Q01DX009 (ip), vehicle: saline",90 % of control
same,T/C,"dose: 3.5 mg/kg/injection, schedule: Q01DX009 (sc), vehicle: saline",100 % of control
same,T/C,"dose: 3.6 mg/kg/injection, schedule: Q01DX004 (ip), vehicle: saline with Tween-80",123 % of control
same,T/C,"dose: 3.6 mg/kg/injection, schedule: Q04DX003 (ip), vehicle: saline + alcohol",232 % of control
same,T/C,"dose: 3.6 mg/kg/injection, schedule: Q04DX003 (ip), vehicle: water",240 % of control and 259 % of control
same,T/C,"dose: 4.0 mg/kg/injection, schedule: Q03HX008 (ip), vehicle: saline",541 % of control
same,T/C,"dose: 4.0 mg/kg/injection, schedule: Q04DX003 (sc), vehicle: saline",150 % of control
same,T/C,"dose: 4.0 mg/kg/injection, schedule: Q06HX004 (ip), vehicle: water",545 % of control
same,T/C,"dose: 4.4 mg/kg/injection, schedule: Q01DX001 (ip), vehicle: saline",150 % of control
same,T/C,"dose: 4.5 mg/kg/injection, schedule: Q01DX009 (ip), vehicle: clinical formulation",100 % of control
same,T/C,"dose: 4.5 mg/kg/injection, schedule: Q04DX003 (ip), vehicle: saline",539 % of control and 571 % of control
same,T/C,"dose: 4.8 mg/kg/injection, schedule: Q04DX003 (ip), vehicle: water",224 % of control and 247 % of control
same,T/C,"dose: 5.0 mg/kg/injection, schedule: Q01DX001 (ip), vehicle: saline",252 % of control
same,T/C,"dose: 5.0 mg/kg/injection, schedule: Q03HX008 (ip), vehicle: water",89 % of control
same,T/C,"dose: 5.0 mg/kg/injection, schedule: Q07DX006 (ip), vehicle: saline",245 % of control
same,T/C,"dose: 5.5 mg/kg/injection, schedule: Q04DX003 (ip), vehicle: saline",571 % of control
same,T/C,"dose: 5.5 mg/kg/injection, schedule: Q04DX003 (sc), vehicle: saline",150 % of control
same,T/C,"dose: 6.0 mg/kg/injection, schedule: Q01DX001 (ip), vehicle: saline",516 % of control
same,T/C,"dose: 6.0 mg/kg/injection, schedule: Q04DX003 (ip), vehicle: saline + alcohol",270 % of control
same,T/C,"dose: 6.0 mg/kg/injection, schedule: Q04DX003 (ip), vehicle: saline",225 % of control and 153 % of control
same,T/C,"dose: 6.0 mg/kg/injection, schedule: Q04DX003 (ip), vehicle: water",250 % of control and 106 % of control and 123 % of control
same,T/C,"dose: 6.0 mg/kg/injection, schedule: Q## X003 (ip), vehicle: saline",153 % of control
same,T/C,"dose: 6.6 mg/kg/injection, schedule: Q01DX001 (iv), vehicle: saline",109 % of control
same,T/C,"dose: 6.67 mg/kg/injection, schedule: Q04DX003 (ip), vehicle: saline",271 % of control
same,T/C,"dose: 7.5 mg/kg/injection, schedule: Q01DX001 (ip), vehicle: saline",295 % of control
same,T/C,"dose: 7.5 mg/kg/injection, schedule: Q01DX001 (sc), vehicle: saline",150 % of control
same,T/C,"dose: 7.5 mg/kg/injection, schedule: Q07DX006 (ip), vehicle: saline",409 % of control
same,T/C,"dose: 8.0 mg/kg/injection, schedule: Q04DX009 (ip), vehicle: water",150 % of control
same,T/C,"dose: 8.4 mg/kg/injection, schedule: Q03HX008 (ip), vehicle: water",83 % of control
same,T/C,"dose: 10.0 mg/kg/injection, schedule: Q01DX001 (ip), vehicle: water",268 % of control
same,T/C,"dose: 10.0 mg/kg/injection, schedule: Q01DX001 (iv), vehicle: saline",117 % of control
same,T/C,"dose: 10.0 mg/kg/injection, schedule: Q07DX006 (ip), vehicle: saline",313 % of control
same,T/C,"dose: 12.0 mg/kg/injection, schedule: Q01DX001 (ip), vehicle: saline",486 % of control and 516 % of control (2×)
same,T/C,"dose: 15.0 mg/kg/injection, schedule: Q01DX001 (iv), vehicle: saline",235 % of control and 312 % of control
same,T/C,"dose: 16.0 mg/kg/injection, schedule: Q04DX009 (ip), vehicle: water",108 % of control
same,T/C,"dose: 16.7 mg/kg/injection, schedule: Q01DX001 (ip), vehicle: water",112 % of control
same,T/C,"dose: 20.0 mg/kg/injection, schedule: Q01DX001 (ip), vehicle: saline",104 % of control
same,T/C,"dose: 20.0 mg/kg/injection, schedule: Q01DX001 (ip), vehicle: water",79 % of control
